Data reported in patent US20240069001A1, “ADAPTIVE PERFUSION SYSTEMS AND METHODS FOR DRUG RELEASE TESTING” (The United States of America, as represented by the …, priority 2020, published 2024).

Assays:
Type in all cases: physicochemical
[1] = Adaptive perfusion (AP) IVRT with 100 kD MWCO mPES hollow fiber filter; details: AP method
Source text: The setup 1000 includes a fresh media reservoir 1002, a particulate filtering device 1004 attached to the fresh media tubing (to prevent particulate contamination), two peristaltic pumps (a first pump 1014 for the sample feed and a second pump 1006 for the fresh media), two additional reservoirs (a first reservoir 1008 for the retentate (also called the feed reservoir) and a second reservoir 1038 for the permeate (also called the permeate reservoir)), a pre-conditioned TFF filter (in particular, an HFF 1020, with first port 1022 and second port 1024 connected to a retentate volume and third port 1032 and fourth port 1040 connected to a permeate volume), a backpressure controlling valve 1028, a magnetic stirrer 1010, a stir plate 1012 for mixing the sample with the media, a pressure monitoring system with three pressure sensors (inlet sensor 1018, retentate sensor 1026, and permeate sensor 1034), a mass flow monitoring system (e.g., flow-meter 1036), a data acquisition system (e.g., computer with software), and a fluid circuit 1030 (e.g., tubing) for interconnecting the various components. HFF 1020 was a Spectrum MicroKros®, 100 kD MWCO, modified polyether sulfone (mPES) membrane, 20 cm^2 surface area (Repligen Corporation, CA, USA). An initial drug product sample of a particular concentration and/or volume was manually spiked into the first reservoir 1008 using conduit 1016.
Pure difluprednate solution and difluprednate polysorbate-80 micelles was evaluated using the setup 1000 of FIG. 10. For pure difluprednate solution, 200 μL of difluprednate solution (1 mg/mL in ethanol) was spiked (via conduit 1016) into 40 mL of release media (10 mM pH 7.4 phosphate buffer mixed with ethanol in the ratio of 80:20 v/v) in reservoir 1008 to reach an initial difluprednate concentration of 5 μg/mL. Ethanol was used as a co-solvent to prevent the precipitation of difluprednate in the media. Difluprednate concentrations in the retentate reservoir 1008 and permeate reservoir 1038 were determined in real time using an in-situ fiber optic UV-Vis system (Pion μDiss Profiler™, Billerica, MA). ZIM analysis was performed to remove polysorbate-80 interference by using wavelength within the range of 271-274 nm (exact ZIM wavelength varied between probes). For difluprednate polysorbate-80 micelles, 1 mL of difluprednate polysorbate-80 micelle solution (100 μg/mL in 3.6% w/v polysorbate-80) was spiked (via conduit 1016) into 40 mL of the release media (10 mM pH 7.4 phosphate buffer) in reservoir 1008 to obtain an initial difluprednate concentration of 2.5 μg/mL. Aliquots of retentate and permeate were collected periodically from the retentate reservoir 1008 and from the permeate tubing (between third port 1032 and permeate reservoir 1038), respectively, and subjected to UPLC analysis to determine difluprednate concentration. Appropriate dilution was performed for the retentate aliquots by using acetonitrile prior to UPLC analysis. The study was conducted at ambient room temperature (i.e., 23.5±1.5° C.).
Several TFF hollow fiber filter modules having different MWCO of 30 kD, 100 kD, 300 kD and 500 kD (Spectrum MicroKros®, modified polyether sulfone (mPES) membrane, 20 cm^2 surface area, Repligen Corporation, CA, USA) were screened initially to select an optimal MWCO for the TFF filter for performing the in vitro release studies. 100 kD MWCO was eventually selected considering the range of globule sizes to be evaluated for the nanoemulsions. 200 μL of nanoemulsion was spiked (via conduit 1016) directly into 40 mL of media (10 mM pH 7.4 phosphate buffer) in reservoir 1008 to provide an initial concentration of 2.5 μg/mL for difluprednate. Aliquots of retentate and permeate were collected periodically from the retentate reservoir 1008 and from the permeate tubing (between outlet 1031 and 1038), respectively, and subjected to UPLC analysis to determine difluprednate concentration. […]

[2] = Reverse-dialysis release/diffusion of pure difluprednate solution (USP 2 apparatus, 100 kD MWCO dialysis tubes); details: pH 7.4 phosphate buffer:ethanol 80:20, 34° C.
Method: Release of difluprednate from pure drug solution was studied using a reverse-dialysis setup, where drug was transferred from outside a dialysis device to the inside. As compared to a dialysis configuration, the reverse-dialysis configuration provides an advantage in terms of allowing for better control of dilution and maximum drug concentration gradient across oil/water interface to drive the drug release. Diffusion of difluprednate through dialysis membrane was determined in a USP 2 apparatus setup (Vision Elite 8, Teledyne Hanson Research, with mini-vessels 800) using commercially available dialysis tubes 808 (Float-A-Lyzer G2, 100 kD MWCO, regenerated cellulose, Spectrum Labs, CA, USA), as shown in FIG. 8A. Each dialysis tube 808 was cleaned with 1.0% w/v polysorbate-80 solution in deionized water and subsequently washed thoroughly with deionized water. Dialysis tubes 808, containing about 1 mL of the release media (i.e., 10 mM pH 7.4 phosphate buffer mixed with ethanol in the ratio of 80:20 v/v), were suspended inside the USP 2 mini-vessels 800. Agitation was controlled at 100 rpm and the temperature was maintained at 34° C. Using conduit 806, 1 mL of difluprednate solution (1 mg/mL in ethanol) was spiked directly into the vessel 800, which contained 200 mL release media 802, in order to achieve an initial drug concentration of 5 μg/mL.
(§1) Within dialysis tube 808, difluprednate concentration (e.g., drug that had diffused through the membrane filter of dialysis device 808) was monitored in real time using an in-situ fiber optic probe 804, in particular a fiber optic UV-Vis system (Pion μDiss Profiler™, Billerica, MA). The scanning frequency was once every minute for the first 6 hours, then it switched to once every 5 minutes for the next 18 hours. After first 24 hours, the scanning frequency was changed to once every 10 minutes for the next 40 hours. For the last 104 hours, the scanning frequency was once every 30 min. The total experimental time was 168 hours (7 days). Pure difluprednate solution diluted with release medium at the same concentration of 5 μg/mL was also monitored in parallel as a control to determine any possible change in drug concentration, e.g., due to degradation. Prior to the start of the experiment, UV signals were calibrated using various concentrations of difluprednate standard solutions (0.05, 0.10, 0.50, 1.00, 2.00, 3.00, 4.00, and 6.00 μg/mL). Zero Intercept Method (ZIM) analysis was performed to remove polysorbate-80 interference by using wavelength within the range of 271-274 nm (exact ZIM wavelength varied between probes). Ethanol was used as a co-solvent to prevent the precipitation of difluprednate in the release media.

[3] = Control: pure difluprednate solution diluted with release medium, monitored for degradation; details: control sample, at 24 hrs; 5 μg/mL in release medium; n=1
Method: as §1

Question: For `CCCC(=O)O[C@]1(C(=O)COC(C)=O)CC[C@H]2[C@@H]3C[C@H](F)C4=CC(=O)C=C[C@]4(C)[C@@]3(F)[C@@H](O)C[C@@]21C` [Pure drug (DFP) solution, Difluprednate], which “time to reach 90% of drug release” value ([1]; permeate (FIG. 12A)) is on record?
Answer: less than 15 minutes

Question: What about the “Permeate Maximum Drug Release” value ([1]; Mean ± SD, n = 3) of the same molecule?
Answer: 93.7 ± 5.5%

Question: What about the “Permeate t50” value ([1]; Mean ± SD, n = 3) of the same molecule?
Answer: 5.3 ± 0.6 min

Question: What about the “Permeate k* (first-order rate constant)” value ([1]; Q = 100*(1 − e^−k*t), Mean ± SD, n = 3, room temperature) of the same molecule?
Answer: 0.146 ± 0.018 min⁻¹

Question: What about the “Retentate k* (first-order rate constant)” value ([1]; Q = 100*e^−k*t, Mean ± SD, n = 3, room temperature) of the same molecule?
Answer: 0.211 ± 0.056 min⁻¹

Question: And the “difluprednate transferred across the membrane (into the permeate)” value ([1]; in less than 15 minutes)?
Answer: more than 90%

Question: And the “drug diffused at plateau” value ([2]; 100 kD MWCO)?
Answer: about 75%

Question: And the “time for difluprednate concentration to reach plateau” value ([2]; 100 kD MWCO)?
Answer: ~8 h

Question: What about the “time for 50% of difluprednate to diffuse across the dialysis membrane” value ([2]; 100 kD MWCO, 100 rpm, 5 μg/mL) of the same molecule?
Answer: more than 3 hours

Question: And the “time after which decrease in difluprednate concentration was observed (degradation in alkaline media)” value ([2]; inside dialysis tube)?
Answer: about 10 hours

Question: And the “pure drug remaining in the bulk media” value [3]?
Answer: 85%
